From patent US12568967B2, “Compositions comprising pyridine carboxylate herbicides with synthetic auxin herbicides or auxin transport inhibitors” (priority 2018, dated 2026)
Values joined by “and” are separate entries in the source; they are usually repeats but may differ in a detail not shown here. Equal entries are not always repeated.

Assays:
Assay type in all cases: in vivo
[1] = test system: Abutilon theophrasti (velvetleaf, ABUTH); experiment: Greenhouse postemergence trial ABUTH; conditions: Compound A 10 g/ha
[2] = test system: Oryza sativa (common rice, ORYSA); experiment: Greenhouse postemergence trial ORYSA; conditions: Compound A 10 g/ha
Procedure: (§1) Seeds of the desired test plant species were planted in a 90:10% v/v (volume/volume) mixture of PRO-MIX® BX (Premier Tech Horticulture, Quakertown, PA, USA) and PROFILE® GREENS GRADE™ (Profile Products LLC, Buffalo Grove, IL, USA) planting mixture, which typically has a pH of 5.2 to 6.2 and an organic matter content of at least 50 percent, in plastic pots with a surface area of 103.2 square centimeters (cm^2). […] The plants were grown for 7-36 days (d) in a greenhouse with an approximate 14-hour (h) photo-period which was maintained at about 23° C. during the day and 22° C. during the night. Nutrients and water were added on a regular basis and supplemental lighting was provided with overhead metal halide 1000-Watt lamps as necessary. The plants were employed for testing when they reached the second or third true leaf stage.
Emulsifiable concentrates of each of each pyridine carboxylate herbicide (Compound A or Compound B) were prepared at 100 grams acid equivalent per liter (g ae/L). […]
(§2) The treated plants and control plants were placed in a greenhouse as described above and watered by sub-irrigation to prevent wash-off of the test compounds. After 20-22 d, the condition of the test plants as compared with that of the control plants was determined visually and scored on a scale of 0 to 100 percent where 0 corresponds to no injury and 100 corresponds to complete kill.

[3] = test system: Matricaria inodora (false chamomile, MATIN); experiment: Greenhouse postemergence trial MATIN; conditions: MATIN; for % visual injury, Obs: applied alone
[4] = test system: Setaria faberi (giant foxtail, SETFA); experiment: Greenhouse postemergence trial SETFA; conditions: Compound A 10 g/ha
Procedure: as §1
(§3) Emulsifiable concentrates of each of each pyridine carboxylate herbicide (Compound A or Compound B) were prepared at 100 grams acid equivalent per liter (g ae/L). The emulsifiable concentrates also included a safener, cloquintocet-mexyl, at 120 grams active ingredient per liter (g ai/L), unless otherwise noted below. An aliquot of each emulsifiable concentrate was placed in a 25 mL glass vial and diluted with an aqueous mixture of 1.25% (v/v) ACTIROB® B esterified rapeseed oil (Bayer Crop Science, Research Triangle Park, NC, USA) or MSO® Concentrate with LECI-TECH® methylated soybean oil (Loveland Products, Loveland, CO, USA) to obtain concentrated stock solutions at the highest application rate for each herbicide, based upon a 12 milliliter (mL) application volume at a rate of 187 liters per hectare (L/ha). The concentrated stock solutions were further diluted with an aqueous mixture of 1.25% v/v ACTIROB® B or MSO® Concentrate with LECI-TECH® to obtain stock solutions at reduced application rates for each herbicide. Spray solutions of the herbicide combinations (Compound A or Compound B plus synthetic auxin herbicide or auxin transport inhibitor) were prepared by adding weighed amounts or aliquots of the synthetic auxin herbicide or auxin transport inhibitor to the stock solutions of Compound A or Compound B to form 12-mL spray solutions in two-way combinations.
(§4) The spray solutions were applied to the plant material with an overhead Mandel track sprayer equipped with 8002E nozzles calibrated to deliver 187 L/ha over an application area of 0.503 square meters (m^2) at a spray height of 18 inches (43 centimeters (cm)) above the average plant canopy. Control plants were sprayed in the same manner with the solvent blank. All pyridine carboxylate herbicide (component a) application rates are given as “g ae/ha” and all synthetic auxin herbicide or auxin transport inhibitor (component b) application rates are given as “g ai/ha.”
as §2

[5] = test system: Triticum aestivum (winter wheat, TRZAW); experiment: Greenhouse postemergence crop phytotoxicity TRZAW; conditions: for % visual injury Obs / visual injury, Obs / % visual injury, Obs: TRZAW; for % visual injury, Obs: applied alone; for % visual injury (crop phytotoxicity): c1-3 Compound A 7.5/10/15
[6] = test system: Echinochloa crus-galli (barnyard grass, ECHCG); experiment: Greenhouse postemergence trial ECHCG; conditions: Compound A 10 g/ha
Procedure: as §1, §3, §4, §2

[7] = test system: Glycine max (volunteer soybean, GLXMA); experiment: Greenhouse postemergence trial GLXMA; conditions: Compound A 10 g/ha
Procedure: as §1, §3, §4, §2

[8] = test system: Chenopodium album L. (common lambsquarters, CHEAL); experiment: Greenhouse postemergence trial CHEAL;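 further: greenhouse plants sprayed at second to third true leaf stage, injury rated by eye after 20-22 d versus solvent-blank sprayed controls, 0 = no injury, 100 = complete kill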
[9] = test system: Hordeum vulgare (winter barley, HORVW); experiment: Greenhouse postemergence crop phytotoxicity HORVW; conditions: HORVW; for % visual injury, Obs: applied alone

With N#CCOC(=O)c1nc(-c2ccc3cc[nH]c3c2F)c(F)c(N)c1Cl [Compound A, cyanomethyl 4-amino-3-chloro-5-fluoro-6-(7-fluoro-1H-indol-6-yl)pyridine-2-carboxylate] the “% visual injury, Obs” value ([1]; ABUTH) was 75%, the “ABUTH Obs (% visual injury)” value [1] was 78% and the “ABUTH Obs (% visual injury)” value ([1]; without safener) was 75%. For the same molecule, the “ORYSA Obs (% visual injury)” value [2] was 10%, the “visual injury, Obs” value ([3]; Compound A 10 g/ha alone) was 60% and the “visual injury, Obs” value ([3]; Compound A 15 g/ha alone) was 60%. For the same molecule, the “% visual injury (Obs)” value ([3]; alone 10 g/ha) was 93%, the “% visual injury Obs” value ([3]; alone 10 g/ha) was 60% and the “% visual injury Obs” value ([3]; alone, 15 g/ha) was 60%. The “% visual injury, Obs” value ([3]; 10 g/ha) was 60%, the “% visual injury, Obs” value ([3]; 15 g/ha) was 60% and the pest or weed control at […] ([3]; Tripleurospermum inodorum, post-emergence, Compound A 7.5 g/ha, read-out: % visual injury Obs) was 30%. The pest or weed control at 10 g/ha ([3]; Tripleurospermum inodorum, post-emergence, Compound A 10 g/ha, read-out: % visual injury Obs) was 60%, the pest or weed control at 15 g/ha ([3]; Tripleurospermum inodorum, post-emergence, Compound A 15 g/ha, read-out: % visual injury Obs) was 60% and the “SETFA Obs (% visual injury)” value [4] was 70%. The “SETFA Obs (% visual injury)” value ([4]; without safener) was 0%, the “% visual injury, Obs” value ([4]; SETFA) was 0% and the “% visual injury Obs” value ([5]; Compound A 10 g/ha) was 0%. The “visual injury, Obs” value ([5]; Compound A 10 g/ha alone) was 0%, the “% visual injury Obs” value ([5]; Compound A 15 g/ha) was 0% and the “visual injury, Obs” value ([5]; Compound A 15 g/ha alone) was 0%. For the same molecule, the “% visual injury Obs” value ([5]; alone, 10 g/ha) was 0%, the “% visual injury Obs” value ([5]; alone, 15 g/ha) was 0% and the “% visual injury, Obs” value ([5]; 10 g/ha) was 0%. The “% visual injury, Obs” value ([5]; 15 g/ha) was 0%, the “% visual injury (crop phytotoxicity)” value ([5]; c4-5 Fluroxypyr-MHE 100/140, c6-8, c9-11 A 7.5/10/15 + Fluroxypyr-MHE 100, 140 g/ha) was 0% and the “% visual injury (crop phytotoxicity)” value ([5]; c4-6 Clopyralid 30/60/120, c7-9, c10-12, c13-15 A 7.5/10/15 + Clopyralid 30, 60, 120 g/ha) was 0%. The “% visual injury (crop phytotoxicity)” value ([5]; c4 Aminopyralid 5, c5-7 A 7.5/10/15 + Aminopyralid 5 g/ha) was 0%, the “% visual injury (crop phytotoxicity)” value ([5]; c4 Halauxifen-methyl 6, c5-7 A 7.5/10/15 + Halauxifen-methyl 6 g/ha) was 0% and the “ECHCG Obs (% visual injury)” value [6] was 78%. The “ECHCG Obs (% visual injury)” value ([6]; without safener) was 58%, the “% visual injury, Obs” value ([6]; ECHCG) was 58% and the “GLXMA Obs (% visual injury)” value ([7]; without safener) was 85%. For the same molecule, the “% visual injury, Obs” value ([7]; GLXMA) was 85%, the “% visual injury, Obs” value ([8]; CHEAL, Compound A 10 g/ha) was 88% and 78% and the “% visual injury (Obs)” value ([8]; CHEAL, alone 10 g/ha) was 90% and 78%. The “% visual injury, Obs” value ([8]; CHEAL, applied alone, 10 g/ha) was 80%, the “CHEAL Obs (% visual injury)” value ([8]; Compound A 10 g/ha) was 88% and 90% and the “CHEAL % visual injury Obs” value ([8]; Compound A 10 g/ha (Table 42)) was 88%. The “CHEAL % visual injury Obs” value ([8]; Compound A 10 g/ha (Table 43)) was 88%, the “CHEAL % visual injury Obs” value ([8]; Compound A 10 g/ha (Table 44)) was 88% and the “% visual injury Obs” value ([9]; Compound A 10 g/ha) was 0%. The “visual injury, Obs” value ([9]; Compound A 10 g/ha alone) was 0%, the “% visual injury Obs” value ([9]; Compound A 15 g/ha) was 0% and the “visual injury, Obs” value ([9]; Compound A 15 g/ha alone) was 0%. The “% visual injury Obs” value ([9]; alone, 10 g/ha) was 0%, the “% visual injury Obs” value ([9]; alone, 15 g/ha) was 0% and the “% visual injury, Obs” value ([9]; 10 g/ha) was 0%. The “% visual injury, Obs” value ([9]; 15 g/ha) was 0%.
